Laboratory results from ChEMBL document CHEMBL1201862, “PubChem BioAssay data set” (2004).
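Compound exposure: 48 hours, 5 concentrations, 96-well plates. Here, GI50 denotes the concentration required for 50% inhibition of growth.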 Calls of active or inactive are those of the source. No stated cut-off is given here; in the data, active = GI50 up to about 1.1 µM and inactive = higher.

Tests used:
Assay in all cases: NCI anticancer screen, dose series, 48 h
786-0 = tested on: 786-0
COLO 205 = tested on: COLO 205
HL-60 = tested on: HL-60
KM12 = tested on: KM12
DU-145 = tested on: DU-145
EKVX = tested on: EKVX
CAKI-1 = tested on: CAKI-1
SF-268 = tested on: SF-268
Malme-3M = tested on: Malme-3M
OVCAR-5 = tested on: OVCAR-5
HOP-92 = tested on: HOP-92
OVCAR-4 = tested on: OVCAR-4
CCRF-CEM = tested on: CCRF-CEM
T47D = tested on: T47D
MDA-MB-231 = tested on: MDA-MB-231
SK-MEL-2 = tested on: SK-MEL-2
HCC 2998 = tested on: HCC 2998
U-251 = tested on: U-251
Hs-578T = tested on: Hs-578T
SNB-75 = tested on: SNB-75

Structure (SMILES)	GI50 (786-0)	GI50 (COLO 205)	GI50 (HL-60)	GI50 (KM12)	GI50 (DU-145)	GI50 (EKVX)	GI50 (CAKI-1)	GI50 (SF-268)	GI50 (Malme-3M)	GI50 (OVCAR-5)	GI50 (HOP-92)	GI50 (OVCAR-4)	GI50 (CCRF-CEM)	GI50 (T47D)	GI50 (MDA-MB-231)	GI50 (SK-MEL-2)	GI50 (HCC 2998)	GI50 (U-251)	GI50 (Hs-578T)	GI50 (SNB-75)
CCC(=O)c1cc(C(=O)C(=S)SC)cc(C(=O)C(=S)SC)c1	> 85.7 µM (inactive)	> 100 µM (inactive)	4.83 µM (inactive)	> 100 µM (inactive)	> 100 µM (inactive)	> 100 µM (inactive)	> 100 µM (inactive)	> 100 µM (inactive)	> 27.3 µM (inactive)	> 100 µM (inactive)	> 59.7 µM (inactive)	> 100 µM (inactive)	3.05 µM (inactive)	> 100 µM (inactive)	> 100 µM (inactive)	> 100 µM (inactive)	> 100 µM (inactive)	> 69.3 µM (inactive)	> 49.7 µM (inactive)	> 100 µM (inactive)
COc1ccc(C2C3=C(COC3=O)OC(C)(C)Oc3cc4c(cc32)OCO4)cc1OC (stereo not given)	41.9 µM (inactive)	20.9 µM (inactive)	29.2 µM (inactive)	24 µM (inactive)	42.1 µM (inactive)	28.5 µM (inactive)	43.6 µM (inactive)	21.1 µM (inactive)	29.7 µM (inactive)	> 77.8 µM (inactive)	37.5 µM (inactive)	> 53.8 µM (inactive)	37.1 µM (inactive)	37.5 µM (inactive)	33.8 µM (inactive)	34.4 µM (inactive)	78 µM (inactive)	39.1 µM (inactive)	31.6 µM (inactive)	13.2 µM (inactive)
C=C1C(=O)OC2CC(C)C3CC(O)OC(OCC)C3(C)CC12 (stereo not given)	10.2 µM (inactive)	15.8 µM (inactive)	1.14 µM (inactive)	20.6 µM (inactive)	33.6 µM (inactive)	23.7 µM (inactive)	17.8 µM (inactive)	18 µM (inactive)	10.9 µM (inactive)	20.2 µM (inactive)	16 µM (inactive)	21.7 µM (inactive)	6.46 µM (inactive)	16.6 µM (inactive)	17.5 µM (inactive)	15.3 µM (inactive)	16.8 µM (inactive)	17.1 µM (inactive)	23.1 µM (inactive)	15.5 µM (inactive)
Sc1nn2c(COc3cccc(OCc4nnc5sc(S)nn45)c3)nnc2s1	41.4 µM (inactive)	> 100 µM (inactive)	7.08 µM (inactive)	> 100 µM (inactive)	> 100 µM (inactive)	> 100 µM (inactive)	> 100 µM (inactive)	> 100 µM (inactive)	> 100 µM (inactive)	> 100 µM (inactive)	> 100 µM (inactive)	> 100 µM (inactive)	28.2 µM (inactive)	> 100 µM (inactive)	> 100 µM (inactive)	> 100 µM (inactive)	> 100 µM (inactive)	> 100 µM (inactive)	> 100 µM (inactive)	> 100 µM (inactive)
CC1C(=NO)C(C)C(c2ccccc2)N(N=O)C1c1ccccc1 (stereo not given)	19.6 µM (inactive)	17.3 µM (inactive)	25 µM (inactive)	16 µM (inactive)	30.8 µM (inactive)	22.9 µM (inactive)	> 10 µM (inactive)	15 µM (inactive)	17.4 µM (inactive)	–	19.7 µM (inactive)	19.6 µM (inactive)	28.1 µM (inactive)	18.7 µM (inactive)	16.1 µM (inactive)	18.7 µM (inactive)	18.4 µM (inactive)	17.7 µM (inactive)	16.4 µM (inactive)	25.1 µM (inactive)
C/C(=N\Nc1nc2cc(F)ccc2s1)c1ccccn1	0.0439 µM (active)	< 0.01 µM (active)	< 0.01 µM (active)	0.165 µM (active)	0.344 µM (active)	< 0.0141 µM (active)	< 0.01 µM (active)	0.0301 µM (active)	< 0.01 µM (active)	0.716 µM (active)	0.0352 µM (active)	1.06 µM (active)	< 0.01 µM (active)	< 0.01 µM (active)	0.0389 µM (active)	1.54 µM (inactive)	1.92 µM (inactive)	0.0402 µM (active)	0.335 µM (active)	0.661 µM (active)
Clc1cccc(Cl)c1/C=N/C12CC3CC(CC(C3)C1)C2	> 10 µM (inactive)	> 10 µM (inactive)	> 10 µM (inactive)	> 10 µM (inactive)	> 10 µM (inactive)	> 10 µM (inactive)	> 10 µM (inactive)	> 10 µM (inactive)	> 10 µM (inactive)	> 10 µM (inactive)	> 10 µM (inactive)	> 10 µM (inactive)	> 10 µM (inactive)	> 10 µM (inactive)	> 10 µM (inactive)	> 10 µM (inactive)	> 10 µM (inactive)	> 10 µM (inactive)	> 10 µM (inactive)	6.47 µM (inactive)
O=[N+]([O-])c1ccc2c(c1)C1=NN(c3ccccc3)C(c3ccccc3Br)C1CCC2 (stereo not given)	> 50 µM (inactive)	33.7 µM (inactive)	7.64 µM (inactive)	16.9 µM (inactive)	16.3 µM (inactive)	20.5 µM (inactive)	23.4 µM (inactive)	21.9 µM (inactive)	24.8 µM (inactive)	> 50 µM (inactive)	14.6 µM (inactive)	19.9 µM (inactive)	2.19 µM (inactive)	10.2 µM (inactive)	36.3 µM (inactive)	24.7 µM (inactive)	21.9 µM (inactive)	25.3 µM (inactive)	48.1 µM (inactive)	42.8 µM (inactive)
c1ccc2c(c1)nnn2C1CCCCO1 (stereo not given)	> 100 µM (inactive)	> 100 µM (inactive)	> 100 µM (inactive)	> 100 µM (inactive)	> 100 µM (inactive)	> 100 µM (inactive)	> 100 µM (inactive)	> 100 µM (inactive)	> 100 µM (inactive)	> 100 µM (inactive)	> 100 µM (inactive)	> 100 µM (inactive)	> 100 µM (inactive)	> 100 µM (inactive)	> 100 µM (inactive)	> 100 µM (inactive)	> 100 µM (inactive)	> 100 µM (inactive)	> 100 µM (inactive)	> 100 µM (inactive)
CC(=O)N(CCc1ccccc1)C(C#N)c1ccc(OCCCCCCCCCCOc2ccc(C(C#N)N(CCc3ccccc3)C(C)=O)cc2)cc1 (stereo not given)	16.2 µM (inactive)	> 100 µM (inactive)	> 100 µM (inactive)	> 100 µM (inactive)	85.9 µM (inactive)	36.5 µM (inactive)	97.3 µM (inactive)	21.7 µM (inactive)	> 100 µM (inactive)	> 100 µM (inactive)	15 µM (inactive)	5.41 µM (inactive)	> 100 µM (inactive)	41 µM (inactive)	15.2 µM (inactive)	47.2 µM (inactive)	> 100 µM (inactive)	21.7 µM (inactive)	17.1 µM (inactive)	17.7 µM (inactive)
COc1ccc(CNNC(=O)c2cc[n+]([BH2-]C#N)cc2)cc1OC	> 100 µM (inactive)	> 100 µM (inactive)	> 100 µM (inactive)	> 100 µM (inactive)	> 100 µM (inactive)	> 100 µM (inactive)	> 100 µM (inactive)	> 100 µM (inactive)	> 100 µM (inactive)	> 100 µM (inactive)	> 100 µM (inactive)	> 100 µM (inactive)	> 100 µM (inactive)	> 100 µM (inactive)	> 100 µM (inactive)	> 100 µM (inactive)	> 100 µM (inactive)	> 100 µM (inactive)	> 100 µM (inactive)	> 100 µM (inactive)
CCCCCCCCCCCC(=O)OC[C@@H](C[As](=O)(O)O)OC(=O)CCCCCCCCCCC	13.4 µM (inactive)	17 µM (inactive)	2.95 µM (inactive)	5.02 µM (inactive)	18.1 µM (inactive)	13.7 µM (inactive)	11.1 µM (inactive)	5.15 µM (inactive)	3.41 µM (inactive)	16.3 µM (inactive)	1.71 µM (inactive)	14.2 µM (inactive)	16.2 µM (inactive)	12.6 µM (inactive)	3.52 µM (inactive)	2.69 µM (inactive)	7.57 µM (inactive)	2.14 µM (inactive)	3.93 µM (inactive)	3.82 µM (inactive)
COc1c2c(cc3oc(=O)ccc13)OC(C)(C)C=C2 [XANTHOXYLETIN]	22.4 µM (inactive)	25.4 µM (inactive)	15.8 µM (inactive)	19.2 µM (inactive)	20.4 µM (inactive)	37.9 µM (inactive)	2.26 µM (inactive)	41.9 µM (inactive)	30.1 µM (inactive)	–	7.29 µM (inactive)	–	–	1.48 µM (inactive)	19.5 µM (inactive)	23 µM (inactive)	18.7 µM (inactive)	24.9 µM (inactive)	29.9 µM (inactive)	22 µM (inactive)
Clc1ccc(Cl)c(/N=N/c2cc3c4c(c2)CCCN4CCC3)c1	> 10 µM (inactive)	> 10 µM (inactive)	5 µM (inactive)	> 10 µM (inactive)	> 10 µM (inactive)	> 10 µM (inactive)	> 10 µM (inactive)	> 10 µM (inactive)	> 10 µM (inactive)	–	> 10 µM (inactive)	> 10 µM (inactive)	> 10 µM (inactive)	> 10 µM (inactive)	> 10 µM (inactive)	> 10 µM (inactive)	> 10 µM (inactive)	> 10 µM (inactive)	> 10 µM (inactive)	> 10 µM (inactive)
